From ChEMBL document CHEMBL1133805, “Discovery and initial structure-activity relationships of trisubstituted ureas as thrombin receptor (PAR-1) antagonists” (Bioorg Med Chem Lett, 2001)
pIC50, pKi: −log10 of the molar value. Where a SMILES comes first, the peptide text is derived from it. [ ]: non-standard residue; d: D form. The star is where a group is joined. Phe(4-guanidino) = N=C(N)Nc1ccc(C[C@H](N)C(=O)O)cc1; Phe(4-F) = N[C@@H](Cc1ccc(F)cc1)C(=O)O; Orn = NCCC[C@H](N)C(=O)O; X1 = O=C(/C=C/c1ccccc1)*; Propionyl = CCC(=O)*

Assays:
Homo sapiens = organism: Homo sapiens; assay: Inhibitory concentration against TRAP-stimulated secretion of 3H serotonin from human platelets; assay type: functional
[1] = molecular target: T1, Proteinase-activated receptor 1 (Homo sapiens, UniProt P25116); assay: Binding affinity against platelet thrombin receptor
T1 sequence (P25116 whole entry): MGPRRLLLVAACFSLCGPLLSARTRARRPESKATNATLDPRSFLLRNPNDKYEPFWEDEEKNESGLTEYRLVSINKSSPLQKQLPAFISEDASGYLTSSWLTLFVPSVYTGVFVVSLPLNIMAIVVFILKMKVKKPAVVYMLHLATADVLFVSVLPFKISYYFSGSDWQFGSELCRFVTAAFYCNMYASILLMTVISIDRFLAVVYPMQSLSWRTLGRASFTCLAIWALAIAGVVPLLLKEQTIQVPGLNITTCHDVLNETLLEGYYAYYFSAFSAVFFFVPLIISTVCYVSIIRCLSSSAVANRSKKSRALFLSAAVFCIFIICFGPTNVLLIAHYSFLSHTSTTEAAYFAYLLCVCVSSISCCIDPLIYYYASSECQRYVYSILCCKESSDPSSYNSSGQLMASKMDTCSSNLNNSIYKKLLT

[2] = Inhibitory activity against thrombin's catalytic activity was determined; assay type: functional
[3] = Inhibitory activity against ADP or collagen induced platelet activation; assay type: functional

SMILES	pIC50 (Homo sapiens)	further results
CC(C)(C)C(=O)NCc1ccc(NC(=O)N2CCC[C@@H]2[C@@H](O)c2ccc(Cl)c(Cl)c2)cc1	< 5.00	–
CC(C)(C)C(=O)NCc1ccc(NC(=O)N2CCC[C@H]2[C@H](O)c2ccc(Cl)c(Cl)c2)cc1	< 5.00	–
CC(C)(C)C(=O)NCc1ccc(NC(=O)N(CC(O)c2cccc(Cl)c2Cl)C2CCC2)cc1 (stereo not given)	< 5.00	–
CC(C)(C)C(=O)NCc1ccc(NC(=O)N(CC(O)c2ccc(C#N)cc2)C2CCC2)cc1 (stereo not given)	5.22	–
CC(C)N(C[C@@H](O)c1ccc(Cl)c(Cl)c1)C(=O)Nc1ccc(NC(=O)c2ccc(F)cc2F)cc1	< 5.00	–
C[C@@H]1CC[C@@H]([C@@H](O)c2ccc(Cl)c(Cl)c2)N1C(=O)Nc1ccc(CNC(=O)C(C)(C)C)cc1	< 5.00	–
CC(C)(C)C(=O)NCc1ccc(NC(=O)N(CC(O)c2ccc(F)c(F)c2)C2CCC2)cc1 (stereo not given)	5.00	–
CC(C)(C)C(=O)NCc1ccc(NC(=O)N2CCCC[C@H]2[C@H](O)c2ccc(Cl)c(Cl)c2)cc1	< 5.00	–
CC(C)N(C[C@@H](O)c1ccc(Cl)c(Cl)c1)C(=O)Nc1ccc(CCNC(=O)c2ccc(S(N)(=O)=O)cc2)cc1	6.15	–
CC(C)(C)C(=O)NCc1ccc(NC(=O)N2C[S+]([O-])C[C@@H]2[C@@H](O)c2ccc(Cl)c(Cl)c2)cc1 (stereo not given in full)	< 5.00	–
CC(C)(C)C(=O)NCc1ccc(NC(=O)N2CCC[C@@H]2[C@H](O)c2ccc(Cl)c(Cl)c2)cc1	< 5.00	–
CC(C)(C)C(=O)NCc1ccc(NC(=O)N(CC(O)c2ccc(Cl)cc2Cl)C2CCC2)cc1 (stereo not given)	5.00	–
CC(C)N(C[C@@H](O)c1ccc(Cl)c(Cl)c1)C(=O)Nc1ccc(CNC(=O)c2cccnc2)cc1	6.15	–
CC(C)(C)C(=O)NCc1ccc(NC(=O)N(CC(O)c2ccc(Br)c(Br)c2)C2CCC2)cc1 (stereo not given)	6.00	–
O=C1N(C[C@@H](O)c2ccc(Cl)c(Cl)c2)CCN1c1ccccc1	< 4.00	–
CC(C)N(C[C@@H](O)c1ccc(Cl)c(Cl)c1)C(=O)Nc1ccc(CNC(=O)Nc2ccc(CNC(N)=O)cc2)cc1	6.22	–
CC(C)N(C[C@@H](O)c1ccc(Cl)c(Cl)c1)C(=O)Nc1ccc(NC(=O)c2ccc(S(N)(=O)=O)cc2)cc1	6.00	–
CC(C)N(C[C@@H](O)c1ccc(Cl)c(Cl)c1)C(=O)Nc1ccc(CNC(=O)c2ccc(S(N)(=O)=O)cc2)cc1	6.07	pIC50 [1]: 5.92
Cc1ccc(C(O)CN(C(=O)Nc2ccc(CNC(=O)C(C)(C)C)cc2)C2CCC2)cc1C (stereo not given)	< 5.00	–

SMILES	pIC50 (Homo sapiens)	further results
CC(C)N(C[C@@H](O)c1ccc(Cl)c(Cl)c1)C(=O)Nc1ccc(NC(=O)c2cccc3[nH]cnc23)cc1	6.00	–
CC(C)(C)C(=O)NCc1ccc(NC(=O)N2CCCC(O)(c3ccc(Cl)c(Cl)c3)C2)cc1 (stereo not given)	6.30	–
CC(C)N1CC(c2ccc(Cl)c(Cl)c2)CN(c2ccc(CNC(=O)C(C)(C)C)cc2)C1=O (stereo not given)	< 5.00	–
CC(C)(C)C(=O)NCc1ccc(NC(=O)N2CSC[C@@H]2[C@@H](O)c2ccc(Cl)c(Cl)c2)cc1	5.60	–
CC(C)(C)C(=O)NCc1ccc(NC(=O)N2CCC[C@H]2[C@@H](O)c2ccc(Cl)c(Cl)c2)cc1	5.82	pIC50 [1]: 5.96
CC(C)N(C[C@@H](O)c1ccc(Cl)c(Cl)c1)C(=O)Nc1ccc(CCNC(=O)c2cccnc2)cc1	5.85	–
CC(C)N(C[C@@H](O)c1ccc(Cl)c(Cl)c1)C(=O)Nc1ccc(CNC(=O)c2cccc3[nH]cnc23)cc1	6.35	–
CC(C)N(C[C@@H](O)c1ccc(Cl)c(Cl)c1)C(=O)Nc1ccc(CCNC(=O)c2ccc(F)cc2F)cc1	< 5.00	–
CC(C)N(C[C@@H](O)c1ccc(Cl)c(Cl)c1)C(=O)Nc1ccc(CNC(=O)c2ccc(F)cc2F)cc1	6.05	–
C[C@H]1CC[C@@H]([C@@H](O)c2ccc(Cl)c(Cl)c2)N1C(=O)Nc1ccc(CNC(=O)C(C)(C)C)cc1	6.40	pIC50 [1]: 6.00
CC(C)N(C[C@@H](O)c1ccc(Cl)c(Cl)c1)C(=O)Nc1ccc(CCNC(=O)c2cccc3[nH]cnc23)cc1	6.44	–
CC(C)(C)C(=O)NCc1ccc(NC(=O)N2CCCC[C@H]2[C@@H](O)c2ccc(Cl)c(Cl)c2)cc1	5.37	–
CC(C)(C)C(=O)NCc1ccc(NC(=O)N2CCOC(c3ccc(Cl)c(Cl)c3)C2)cc1 (stereo not given)	< 4.40	–
CC(C)(C)C(=O)NCc1ccc(NC(=O)N(CC(O)c2cc(Cl)cc(Cl)c2)C2CCC2)cc1 (stereo not given)	< 5.00	–
CC[C@H]1CC[C@@H]([C@@H](O)c2ccc(Cl)c(Cl)c2)N1C(=O)Nc1ccc(CNC(=O)C(C)(C)C)cc1	6.15	–
CC(C)(C)C(=O)NCc1ccc(NC(=O)N2CCC(O)(c3ccc(Cl)c(Cl)c3)C2)cc1 (stereo not given)	< 4.40	–
CC(C)(C)C(=O)NCc1ccc(NC(=O)N(CC(O)c2cccc(C#N)c2)C2CCC2)cc1 (stereo not given)	< 5.00	–
CCC(=O)NCCC[C@H](NC(=O)[C@H](CCCN=C(N)N)NC(=O)[C@H](CC(C)C)NC(=O)[C@H](Cc1ccc(NC(=N)N)cc1)NC(=O)[C@H](Cc1ccc(F)cc1)NC(=O)/C=C/c1ccccc1)C(N)=O (X1-[Phe(4-F)][Phe(4-guanidino)]LR[Orn](Propionyl)-NH2)	6.92	–
CC(C)C[C@H](NC(=O)[C@H](Cc1ccc(NC(=N)N)cc1)NC(=O)[C@H](Cc1ccc(F)cc1)NC(=O)/C=C/c1ccccc1)C(=O)N[C@@H](CCCN=C(N)N)C(=O)N[C@@H](CCCN)C(N)=O (X1-[Phe(4-F)][Phe(4-guanidino)]LR[Orn]-NH2)	7.27	–

More lines, main results first:

pIC50 (Homo sapiens)	SMILES	further results
6.15	CC(C)N(C[C@@H](O)c1ccc(Cl)c(Cl)c1)C(=O)Nc1ccc(CNC(=O)C(C)(C)C)cc1	pIC50 [1]: 6.15
< 5.00	CC(C)N(C[C@@H](O)c1ccc(Cl)c(Cl)c1)C(=O)Nc1ccc(NC(=O)C(C)(C)C)cc1	–
5.96	CCCN(C[C@@H](O)c1ccc(Cl)c(Cl)c1)C(=O)Nc1ccc(CNC(=O)C(C)(C)C)cc1	–
< 4.40	CC(C)(C)C(=O)NCc1ccc(NC(=O)NC[C@@H](O)c2ccc(Cl)c(Cl)c2)cc1	–
6.00	CC(C)N(C[C@@H](O)c1ccc(Cl)c(Cl)c1)C(=O)Nc1ccc(CNC(=O)C(C)(C)N)cc1	–
5.17	CC(C)(C)C(=O)NCc1ccc(NC(=O)N(C[C@@H](O)c2ccc(Cl)c(Cl)c2)C2CC2)cc1	pIC50 [1]: 5.68
< 5.00	CCCCN(C[C@@H](O)c1ccc(Cl)c(Cl)c1)C(=O)Nc1ccc(CNC(=O)C(C)(C)C)cc1	–
5.42	CCN(C[C@@H](O)c1ccc(Cl)c(Cl)c1)C(=O)Nc1ccc(CNC(=O)C(C)(C)C)cc1	–
6.40	CC[C@H](C)N(C[C@@H](O)c1ccc(Cl)c(Cl)c1)C(=O)Nc1ccc(CNC(=O)C(C)(C)C)cc1	–
< 5.00	CC(C)CN(C[C@@H](O)c1ccc(Cl)c(Cl)c1)C(=O)Nc1ccc(CNC(=O)C(C)(C)C)cc1	–
6.64	CC[C@@H](C)N(C[C@@H](O)c1ccc(Cl)c(Cl)c1)C(=O)Nc1ccc(CNC(=O)C(C)(C)C)cc1	pKi [2]: < 5.00; pIC50 [3]: < 5.00; pIC50 [1]: 6.92
6.64	CC(C)(C)C(=O)NCc1ccc(NC(=O)N(CC(O)c2ccc(Cl)c(Cl)c2)C2CCC2)cc1 (stereo not given)	–
4.40	CN(C[C@@H](O)c1ccc(Cl)c(Cl)c1)C(=O)Nc1ccc(CNC(=O)C(C)(C)C)cc1	pIC50 [1]: 5.18
< 5.00	CC(C)(C)C(=O)NCc1ccc(NC(=O)N(C[C@@H](O)c2ccc(Cl)c(Cl)c2)c2ccccc2)cc1	–
< 5.00	CC(C)N(C[C@@H](O)c1ccc(Cl)c(Cl)c1)C(=O)Nc1ccc(CCNC(=O)C(C)(C)C)cc1	–
6.00	CCCC(C)N(C[C@@H](O)c1ccc(Cl)c(Cl)c1)C(=O)Nc1ccc(CNC(=O)C(C)(C)C)cc1 (stereo not given in full)	–
5.77	CC(C)(C)C(=O)NCc1ccc(NC(=O)N(C[C@@H](O)c2ccc(Cl)c(Cl)c2)C(C)(C)C)cc1	–
< 5.00	CC(C)(C)C(=O)NCc1ccc(NC(=O)N(C[C@@H](O)c2ccc(Cl)c(Cl)c2)C2CCCC2)cc1	–
